Test results reported in patent US11285156B2, “Substituted piperazines as KRAS G12C inhibitors” (Amgen Inc., priority 2018, dated 2022).
Like-named read-outs stand apart in the source and are kept apart here.

Key:
[1] = test system: Phosphorylation of ERK1/2 in A549 cells; assay: Phospho-ERK1/2 MSD assay in A549 cells; assay type: cell-based; settings: read-out: p-ERK IC50 (2 h, A549; μM), 2 h compound treatment, A549 cells, EGF stimulated
In short: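 Readout: MSD phospho-ERK1/2 signal after compound (2 or 4 h) and 10 min EGF stimulation at 10 ng/mL.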

[2] = test system: Phosphorylation of ERK1/2 in MIA PaCa-2 cells; assay: Phospho-ERK1/2 MSD assay in MIA PaCa-2 cells; assay type: cell-based; settings: read-out: p-ERK IC50 (2 h, MiaPaCa-2; μM), 2 h compound treatment, MIA PaCa-2 cells, EGF stimulated
In short: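 Phospho-ERK1/2 measured by MSD electrochemiluminescence kit in RIPA lysates of MIA PaCa-2 cells. Cells were treated with compound titrations for 2 or 4 h at 37 °C, 5% CO2, followed by a 10 min pulse of 10 ng/mL EGF.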

[3] = target: GDP-bound KRAS protein (aa 1-169), containing both G12C and C118A amino acid substitutions (Homo sapiens (Human), UniProt P01116, C118A/G12C); assay: Coupled nucleotide exchange assay (SOS-mediated nucleotide exchange, AlphaScreen); assay type: biochemical; settings: 5 min compound pre-incubation; for IC50: read-out: Coupled exchange IC50 (5 min; μM)
Sequence of GDP-bound KRAS protein (aa 1-169), containing both G12C and C118A amino acid substitutions (P01116 other isoform, or with tags, fused parts or gaps G12C/C118A): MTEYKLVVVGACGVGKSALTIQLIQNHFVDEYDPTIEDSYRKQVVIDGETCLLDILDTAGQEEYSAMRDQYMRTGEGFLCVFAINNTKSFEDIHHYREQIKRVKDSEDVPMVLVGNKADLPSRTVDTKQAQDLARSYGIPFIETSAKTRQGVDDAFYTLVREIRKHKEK

| Coupled exchange IC50 (5 min; μM) [3] [µM] | SMILES | IC50 [1] [µM] | IC50 [2] [µM] | IC50 [3] [µM] | IC50 ([1]; Homo sapiens, A549, 2 h) [µM] | IC50 ([2]; Homo sapiens, MIA PaCa-2, 2 h) [µM] |
| --- | --- | --- | --- | --- | --- | --- |
| – | C=CC(=O)N1C[C@H](C)N(c2nc(=O)n(-c3c(Cl)ncnc3C(C)C)c3nc(-c4ccccc4F)c(Cl)cc23)C[C@H]1C (single isomer, unassigned) [Example 102-5-2] | > 7.5 | 0.873 | 0.173 | – | – |
| – | C=CC(=O)N1C[C@H](C)N(c2nc(=O)n(-c3c(Cl)ncnc3C(C)C)c3nc(-c4ccccc4C)c(Cl)cc23)C[C@H]1C (single isomer, unassigned) [Example 102-6-1] | > 7.5 | 0.056 | 0.094 | – | – |
| – | C=CC(=O)N1C[C@H](C)N(c2nc(=O)n(-c3c(C)cc(P(C)(C)=O)cc3C(C)C)c3nc(-c4ccccc4F)c(Cl)cc23)C[C@H]1C (single isomer, unassigned) [Example 102-7-1] | – | – | 0.181 | > 7.5 | 1.06 |
| – | C=CC(=O)N1C[C@H](C)N(c2nc(=O)n(-c3c(N(C)C)ccnc3C(C)C)c3nc(-c4ccccc4C(C)C)c(Cl)cc23)C[C@H]1C (single isomer, unassigned) [Example 103-1-2] | > 7.5 | 0.039 | 0.053 | – | – |
| – | C=CC(=O)N1C[C@H](C)N(c2nc(=O)n(-c3c(N(CC)CC)ccnc3C(C)C)c3nc(-c4ccccc4C(C)C)c(Cl)cc23)C[C@H]1C (single isomer, unassigned) [Example 103-6-2] | 5.19 | 0.26 | 0.112 | – | – |
| – | C=CC(=O)N1C[C@H](C)N(c2nc(=O)n(-c3c(N(C)C)ccnc3C(C)C)c3nc(-c4ccccc4C)c(Cl)cc23)C[C@H]1C (single isomer, unassigned) [Example 103-7-2] | > 7.5 | 0.052 | 0.088 | – | – |
| – | C=CC(=O)N1C[C@H](C)N(c2nc(=O)n(-c3c(C)ccnc3C(C)C)c3nc(-c4ccccc4F)c(Cl)nc23)C[C@H]1C (single isomer, unassigned) [Example 106-6-2] | – | – | 0.059 | > 7.5 | 0.301 |
| – | C=CC(=O)N1C[C@H](C)N(c2nc(=O)n(-c3c(C(C)C)ncnc3C3CC3)c3nc(-c4ccccc4F)c(Cl)cc23)C[C@H]1C (single isomer, unassigned) [Example 108-1-1] | > 7.5 | 0.021 | 0.006 | – | – |
| – | C=CC(=O)N1C[C@H](C)N(c2nc(=O)n(-c3c(C(C)C)ncnc3C3CC3)c3nc(-c4ccccc4F)c(Cl)cc23)C[C@H]1C (single isomer, unassigned) [Example 108-1-2] | > 7.5 | 0.054 | 0.008 | – | – |
| – | C=CC(=O)N1C[C@H](C)N(c2nc(=O)n(-c3c(C(C)C)ncnc3C3CC3)c3nc(-c4ccccc4C)c(Cl)cc23)C[C@H]1C (single isomer, unassigned) [Example 108-2-1] | > 7.5 | 0.046 | 0.035 | – | – |
| – | C=CC(=O)N1C[C@H](C)N(c2nc(=O)n(-c3c(C(C)C)ncnc3C3CC3)c3nc(-c4ccccc4C)c(Cl)cc23)C[C@H]1C (single isomer, unassigned) [Example 108-2-2] | > 7.5 | 0.148 | 0.181 | – | – |
| – | C=CC(=O)N1C[C@H](C)N(c2nc(=O)n(-c3c(CC)ncnc3C(C)C)c3nc(-c4ccccc4F)c(Cl)cc23)C[C@H]1C (single isomer, unassigned) [Example 109-1-1] | > 7.5 | 0.045 | 0.06 | – | – |
| – | C=CC(=O)N1C[C@H](C)N(c2nc(=O)n(-c3c(CC)ncnc3C(C)C)c3nc(-c4ccccc4F)c(Cl)cc23)C[C@H]1C (single isomer, unassigned) [Example 109-1-2] | > 7.5 | 0.08 | 0.209 | – | – |
| – | C=CC(=O)N1C[C@H](C)N(c2nc(=O)n(-c3c(CC)ncnc3C(C)C)c3nc(-c4ccccc4C)c(Cl)cc23)C[C@H]1C (single isomer, unassigned) [Example 109-2-1] | > 7.5 | 0.065 | 0.059 | – | – |
| 0.066 | C=CC(=O)N1C[C@H](C)N(c2nc(=O)n(-c3c(C)cc(CN(C)C)cc3C(C)C)c3nc(-c4ccccc4F)c(Cl)cc23)C[C@H]1C (single isomer, unassigned) [Example 121-3] | – | – | – | > 7.5 | 0.027 |
| – | C=CC(=O)N1C[C@H](C)N(c2nc(=O)n(-c3c(N(C)C)ccnc3C(C)C)c3nc(-c4c(F)cccc4NC(=O)CC)c(Cl)cc23)C[C@H]1C (single isomer, unassigned) [Example 122-2-2] | – | 0.63 | 0.088 | > 7.5 | – |
| – | C=CC(=O)N1C[C@H](C)N(c2nc(=O)n(-c3c(N(C)C)ccnc3C(C)C)c3nc(-c4c(F)cccc4NC(=O)C4CC4)c(Cl)cc23)C[C@H]1C (single isomer, unassigned) [Example 122-3-2] | – | – | 0.179 | > 7.5 | 0.145 |
| – | C=CC(=O)N1[C@H](C)CN(c2nc(=O)n(-c3c(C)cc(N)nc3C(C)C)c3nc(-c4c(O)cccc4F)c(F)cc23)C[C@@H]1C (single isomer, unassigned) [Example 123-2] | – | – | 0.4 | > 7.5 | 0.26 |
| – | C=CC(=O)N1[C@H](C)CN(c2nc(=O)n(-c3c(C)cc(N)nc3C(C)C)c3nc(-c4c(N)cccc4F)c(F)cc23)C[C@@H]1C (single isomer, unassigned) [Example 123-6] | – | 0.133 | 0.231 | > 7.5 | – |
| – | C=CC(=O)N1C[C@H](C)N(c2nc(=O)n(-c3c(C(C)C)ccnc3C(C)C)c3nc(-c4ccccc4C)c(Cl)cc23)C[C@H]1C (single isomer, unassigned) [Example 124-2] | – | – | 0.033 | > 7.5 | 0.032 |
| – | C=CC(=O)N1C[C@H](C)N(c2nc(=O)n(-c3c(C(C)C)ccnc3C(C)C)c3nc(-c4ccccc4C(F)(F)F)c(Cl)cc23)C[C@H]1C (single isomer, unassigned) [Example 124-3] | – | – | 0.028 | > 7.5 | 0.032 |
| – | C=CC(=O)N1C[C@H](C)N(c2nc(=O)n(-c3c(C(C)C)ccnc3C(C)C)c3nc(-c4c(O)cccc4F)c(Cl)cc23)C[C@H]1C (single isomer, unassigned) [Example 124-4] | – | – | 0.022 | > 7.5 | 0.016 |
| 0.122 | C=CC(=O)N1C[C@H](C)N(c2nc(=O)n(-c3c(C4CC4)ccnc3C(C)C)c3nc(-c4ccccc4C)c(Cl)cc23)C[C@H]1C (single isomer, unassigned) [Example 124-9] | – | 0.169 | – | > 7.5 | – |
| – | C=CC(=O)N1CCN(c2nc(=O)n(-c3c(C(C)C)ccnc3C(C)C)c3nc(-c4ccccc4C)c(Cl)cc23)[C@@H](C)C1 (single isomer, unassigned) [Example 124-10] | – | – | 0.046 | > 7.5 | 0.049 |
| – | C=CC(=O)N1C[C@H](C)N(c2nc(=O)n(-c3c(C(C)C)ccnc3C(C)C)c3nc(-c4ccccc4C(C)C)c(Cl)cc23)C[C@H]1C (single isomer, unassigned) [Example 125-8] | 5.05 | 0.137 | 0.113 | – | – |
| 0.035 | C=CC(=O)N1C[C@H](C)N(c2nc(=O)n(-c3c(C4CC4)ccnc3C(C)C)c3nc(-c4ccccc4C)c(Cl)cc23)C[C@H]1C (single isomer, unassigned) [Example 125-9] | > 7.5 | 0.048 | – | – | – |
